Tests used:
Hepatitis C virus [1] = test: Inhibition of HCV 1b J4 NS5B Cdelta 21polymerase over expressed in Escherichia coli assessed as [alpha33P]UTP incorporation; parameters: species or system Hepatitis C virus subtype 1b
Hepatitis C virus [2] = test: Inhibition of HCV 1b NS5B polymerase; assay type: organism-based, Hepatitis C virus subtype 1b
Hepatitis C virus [3] = test: Antiviral activity against HCV 1b replication in human 2209-23 cells assessed as [3H]thymidine incorporation into cellular DNA by scintillation proximity assay; assay type: functional, organism-based, Hepacivirus hominis; details: genotype 1b
Hepatitis C virus [4] = test: Antiviral activity against HCV in human HuH7 cells by replicon assay; assay type: functional, organism-based, Hepacivirus hominis; details: Huh-7
[5] = Apparent permeability from apical to basolateral side of human Caco-2 cells after 21 days
[6] = Apparent permeability from basolateral to apical side of human Caco-2 cells after 21 days
[7] = Apparent permeability across human Caco-2 cells after 7 days; assay type: ADME, cell-based

Compound | IC50 (Hepatitis C virus [2]) [µM] | EC50 (Hepatitis C virus [3]) [µM] | other results
CC(C)CCn1cc(C2=NS(=O)(=O)c3ccccc3N2)c(=O)c2ccccc21 | > 1000 | – | –
O=S1(=O)N=C(c2nc(Cc3ccc(F)cc3)c3ccccc3c2O)c2ccccc21 | 2.2 | 0.44 | –
O=S1(=O)C=C(c2nc(Cc3ccc(F)cc3)c3ccccc3c2O)Nc2ccccc21 | 6.9 | 7.6 | –
CC(C)CCn1c(=O)c(C2=CS(=O)(=O)c3ccccc3N2)c(O)c2ccccc21 | 2.3 | 2.5 | –
O=c1c(C2=CS(=O)(=O)c3ccccc3N2)c(O)c2cc(F)ccc2n1Cc1ccc(F)c(F)c1 | 1.2 | 1.5 | –
CC(C)CCn1c(=O)c(C2=CS(=O)(=O)c3ccccc3N2)cc2ccccc21 | 868 | – | –
Cc1ccc2c(c1)c(O)c(C1=CS(=O)(=O)c3ccccc3N1)c(=O)n2Cc1ccc(F)cc1 | 1.5 | 1.5 | –
Cc1ccc2c(c1)c(O)c(C1=CS(=O)(=O)c3ccccc3N1)c(=O)n2CCC1CC1 | 1.3 | 0.64 | Papp [7]: 9.4 ×10⁻⁶ cm/s
O=c1c(C2=CS(=O)(=O)c3ccccc3N2)c(O)c2cc(F)ccc2n1Cc1ccc(F)cc1 | 0.7 | 0.7 | –
Cc1c(-c2ccccc2)c(O)c(C2=CS(=O)(=O)c3ccccc3N2)c(=O)n1CCC(C)C | 87 | – | –
O=c1c(C2=CS(=O)(=O)c3ccccc3N2)c(O)c2cc(F)ccc2n1CCC1CC1 | 1.1 | 1.2 | Papp [7]: 6.4 ×10⁻⁶ cm/s; Papp A→B [5]: 0.6 ×10⁻⁶ cm/s; Papp B→A [6]: 7.1 ×10⁻⁶ cm/s
O=c1c(C2=CS(=O)(=O)c3ccccc3N2)c(O)c2cccnc2n1CCC1CC1 | 2.7 | – | –
CN1C(c2nc(Cc3ccc(F)cc3)c3ccccc3c2O)=CS(=O)(=O)c2ccccc21 | 19.5 | – | –
CC(C)CCn1c(=O)c(C2=CS(=O)(=O)c3ccccc3N2)c(O)c2cccnc21 | 1.4 | – | –
CC(C)CCn1c(=O)c(C2=CS(=O)(=O)c3ccccc3N2)c(O)c2cc(F)cnc21 | 0.83 | 8.6 | –

The remaining molecules from weak to strong by IC50 (Hepatitis C virus [2]), led by results:

IC50 (Hepatitis C virus [2]) [µM] | EC50 (Hepatitis C virus [3]) [µM] | Compound | other results
682 | – | CC(C)CCn1c(=O)c(C2=NS(=O)(=O)c3ccccc3N2)cc2ccccc21 | –
37 | – | N#Cc1cccc(Cn2c(=O)c(C3=CS(=O)(=O)c4ccccc4N3)c(O)c3cc(F)ccc32)c1 | –
17.5 | 46 | O=c1c(C2=CS(=O)(=O)c3ccccc3N2)c(O)c2ccccc2n1Cc1ccccc1F | –
3.8 | 7.1 | COc1ccc2c(c1)c(O)c(C1=CS(=O)(=O)c3ccccc3N1)c(=O)n2CCC1CC1 | –
2.4 | 1.6 | O=c1c(C2=CS(=O)(=O)c3ccccc3N2)c(O)c2cc(Cl)ccc2n1CCC1CC1 | –
1.1 | 0.87 | CC(C)CCn1c(=O)c(C2=NS(=O)(=O)c3ccccc3N2)c(O)c2ccccc21 | IC50 (Hepatitis C virus [1]): 0.03 µM
0.72 | 0.79 | O=c1c(C2=CS(=O)(=O)c3ccccc3N2)c(O)c2ccccc2n1Cc1ccc(F)cc1 | Papp [7]: 4.4 ×10⁻⁶ cm/s
0.4 | 0.8 | Cc1cc(Cn2c(=O)c(C3=CS(=O)(=O)c4ccccc4N3)c(O)c3cc(F)ccc32)ccc1F | Papp A→B [5]: 0.5 ×10⁻⁶ cm/s; Papp B→A [6]: 5.3 ×10⁻⁶ cm/s
0.1 | 0.26 | O=c1c(C2=Nc3ccccc3S(=O)(=O)N2)c(O)c2cc(F)ccc2n1CCC1CC1 | IC50 (Hepatitis C virus [1]): 0.01 µM; IC50 (Hepatitis C virus [4]): 0.04 µM

Source: ChEMBL document CHEMBL1136948, “Non-nucleoside inhibitors of HCV NS5B polymerase. Part 1: Synthetic and computational exploration of the binding modes of benzothiadiazine and 1,4-benzothiazine HCV NS5b polymerase inhibitors” (Bioorg Med Chem Lett, 2009)
